In patent US20220395549A1, “COMPOSITIONS OF THE OLEA EUROPAEA V. SYLVESTRIS WITH ANTIMICROBIAL EFFICACY” (TAPROGGE GMBH, priority 2019, published 2022):

Tested on: S. aureus ATCC 6538
Assay: quantitative suspension assay of mono-substances
Assay type: cell-based, Staphylococcus aureus
Conditions: for Number of CFUs: initial cell load 9.9 × 10^4 CFU/ml; for antimicrobial effect, summary in words: detection limit of the assay 100 CFU/ml
Protocol: A stock solution was prepared by adding 0.1 ml methanol to 10.48 mg of hydroxytyrosol. After dissolving of the compound, the solution was quantitatively transferred into 4.9 ml water for injection (WFI), effective concentration of hydroxytyrosol: 2.0 mg/ml.
Using the stock solution, five (5) concentrations of hydroxytyrosol in a geometric series of 2 mg hydroxytyrosol/ml to 0.125 mg hydroxytyrosol/ml were tested in a quantitative suspension assay.
2 ml of the stock solution and the dilutions (V1 to V4), respectively, and a methanol-solution of 2% as a positive control were inoculated with 0.1 ml of a test suspension of S. aureus ATCC 6538, adjusted to about 2.0×10^5 CFU/0.1 ml, resulting in about 100,000 CFU/ml in the individual assays.
Samples (0.1 ml) were then taken at t 0, 12, 30, and 60 minutes as well as t 24 48, and 72 hours after inoculation and culturing at between 20-25° C., and were diluted with 0.9 ml of 0.9% NaCl solution. The samples were plated on blood agar plates, and incubated up to 5 days at between 30-35° C.
A stock solution was prepared at a concentration of 2 mg/ml of oleocanthal. The compound was dissolved by in ethanol (99.8%) and WFI was added.
Using the stock solution, concentrations of oleocanthal in a geometric series of 1 mg oleocanthal/ml to 0.125 mg oleocanthal/ml were tested in a quantitative suspension assay.
2 ml of the stock solution and the dilutions (V1 to V4), respectively, and a ethanol-solution of 2.85% as a positive control were inoculated with 0.055 ml of a test suspension of S. aureus ATCC 6538, adjusted to about 3.6×10^5 CFU/0.1 ml, resulting in about 99,000 CFU/ml in the individual assays.
A stock solution was prepared at a concentration of 1 mg/ml of oleacin. The compound was dissolved by in ethanol (99.8%) and WFI was added.
Using the stock solution, concentrations of oleacin at 0.25 mg oleacin/ml and 0.125 mg oleacin/ml were tested in a quantitative suspension assay.
2 ml of the stock solution and the dilutions (V1 and V2), respectively, and a ethanol-solution of 0.44% as a positive control were inoculated with 0.055 ml of a test suspension of S. aureus ATCC 6538, adjusted to about 3.5×10^5 CFU/0.1 ml, resulting in about 99,000 CFU/ml in the individual assays.
A stock solution was prepared by adding 0.1 ml chloroform to 25 mg of uvaol. After dissolving of the compound, the solution was quantitatively transferred into 12.4 ml water for injection (WFI), effective concentration of uvaol: 2.0 mg/ml.
Using the stock solution, five (5) concentrations of uvaol in a geometric series of 2 mg uvaol/ml to 0.125 mg uvaol/ml were tested in a quantitative suspension assay.
2 ml of the stock solution and the dilutions (V1 to V4), respectively, and a chloroform-solution of 0.8% as a positive control were inoculated with 0.1 ml of a test suspension of S. aureus ATCC 6538, adjusted to about 2.0×10^5 CFU/0.1 ml, resulting in about 100,000 CFU/ml in the individual assays.
A stock solution was prepared by adding 0.1 ml chloroform to 10.45 mg of erythrodiol. After dissolving of the compound, the solution was quantitatively transferred into 4.9 ml water for injection (WFI), effective concentration of erythrodiol: 2.0 mg/ml.
2 ml of the stock solution and the dilutions (V1 to V4), respectively, and a chloroform-solution of 2% as a positive control were inoculated with 0.1 ml of a test suspension of S. aureus ATCC 6538, adjusted to about 3.6×10^5 CFU/0.1 ml, resulting in about 100.000 CFU/ml in the individual assays.

In the case of `C/C=C(/C=O)[C@@H](CC=O)CC(=O)OCCc1ccc(O)cc1` [oleocanthal], the “Number of CFUs” value (0.125 Ole/ml, t 0 min) is reported as 2.0 × 10^4 CFU/ml, the “Number of CFUs” value (0.125 Ole/ml, t 12 min) is reported as 1.6 × 10^4 CFU/ml and the “Number of CFUs” value (0.125 Ole/ml, t 30 min) is reported as 1.6 × 10^4 CFU/ml. The “Number of CFUs” value (0.125 Ole/ml, t 60 min) was 1.1 × 10^4 CFU/ml, the “Number of CFUs” value (0.125 Ole/ml, t 24 h) was 5.4 × 10^3 CFU/ml and the “Number of CFUs” value (0.125 Ole/ml, t 48 h) was under 100 CFU/ml. For the same compound, the “Number of CFUs” value (0.125 Ole/ml, t 72 h) was under 100 CFU/ml, the “Number of CFUs” value (0.25 Ole/ml, t 0 min) was 1.7 × 10^4 CFU/ml and the “Number of CFUs” value (0.25 Ole/ml, t 12 min) was 1.8 × 10^4 CFU/ml. The “Number of CFUs” value (0.25 Ole/ml, t 30 min) was 2.0 × 10^4 CFU/ml, the “Number of CFUs” value (0.25 Ole/ml, t 60 min) was 1.6 × 10^4 CFU/ml and the “Number of CFUs” value (0.25 Ole/ml, t 24 h) was 7.2 × 10^3 CFU/ml. For the same compound, the “Number of CFUs” value (0.25 Ole/ml, t 48 h) was 8.3 × 10^3 CFU/ml, the “Number of CFUs” value (0.25 Ole/ml, t 72 h) was under 100 CFU/ml and the “Number of CFUs” value (0.5 Ole/ml, t 0 min) was 8.3 × 10^3 CFU/ml. For the same compound, the “Number of CFUs” value (0.5 Ole/ml, t 12 min) was 6.1 × 10^3 CFU/ml, the “Number of CFUs” value (0.5 Ole/ml, t 30 min) was 5.1 × 10^3 CFU/ml and the “Number of CFUs” value (0.5 Ole/ml, t 60 min) was 2.4 × 10^3 CFU/ml. The “Number of CFUs” value (0.5 Ole/ml, t 24 h) was under 100 CFU/ml, the “Number of CFUs” value (0.5 Ole/ml, t 48 h) was under 100 CFU/ml and the “Number of CFUs” value (0.5 Ole/ml, t 72 h) was under 100 CFU/ml. The “Number of CFUs” value (1.0 Ole/ml, t 0 min) was under 100 CFU/ml, the “Number of CFUs” value (1.0 Ole/ml, t 12 min) was under 100 CFU/ml and the “Number of CFUs” value (1.0 Ole/ml, t 30 min) was under 100 CFU/ml. For the same compound, the “Number of CFUs” value (1.0 Ole/ml, t 60 min) was under 100 CFU/ml, the “Number of CFUs” value (1.0 Ole/ml, t 24 h) was under 100 CFU/ml and the “Number of CFUs” value (1.0 Ole/ml, t 48 h) was under 100 CFU/ml. For the same compound, the “Number of CFUs” value (1.0 Ole/ml, t 72 h) was under 100 CFU/ml, the “Number of CFUs” value (2.0 Ole/ml, t 0 min) was under 100 CFU/ml and the “Number of CFUs” value (2.0 Ole/ml, t 12 min) was under 100 CFU/ml. For the same compound, the “Number of CFUs” value (2.0 Ole/ml, t 30 min) was under 100 CFU/ml, the “Number of CFUs” value (2.0 Ole/ml, t 60 min) was under 100 CFU/ml and the “Number of CFUs” value (2.0 Ole/ml, t 24 h) was under 100 CFU/ml. For the same compound, the “Number of CFUs” value (2.0 Ole/ml, t 48 h) was under 100 CFU/ml, the “Number of CFUs” value (2.0 Ole/ml, t 72 h) was under 100 CFU/ml and the “antimicrobial effect, summary in words” value was “immediate effect at the higher concentrations”.

With `CC=C(C=O)C(CC=O)CC(=O)OCCc1ccc(O)c(O)c1` (stereo in doubt) [oleacin] the “Number of CFUs” value (0.125 Oci/ml, t 0 min) was 4.3 × 10^3 CFU/ml, the “Number of CFUs” value (0.125 Oci/ml, t 12 min) was under 100 CFU/ml and the “Number of CFUs” value (0.125 Oci/ml, t 30 min) was under 100 CFU/ml. For the same compound, the “Number of CFUs” value (0.125 Oci/ml, t 60 min) was under 100 CFU/ml, the “Number of CFUs” value (0.125 Oci/ml, t 24 h) was under 100 CFU/ml and the “Number of CFUs” value (0.125 Oci/ml, t 48 h) was under 100 CFU/ml. The “Number of CFUs” value (0.125 Oci/ml, t 72 h) was under 100 CFU/ml, the “Number of CFUs” value (0.25 Oci/ml, t 0 min) was 1.8 × 10^3 CFU/ml and the “Number of CFUs” value (0.25 Oci/ml, t 12 min) was under 100 CFU/ml. For the same compound, the “Number of CFUs” value (0.25 Oci/ml, t 30 min) was under 100 CFU/ml, the “Number of CFUs” value (0.25 Oci/ml, t 60 min) was under 100 CFU/ml and the “Number of CFUs” value (0.25 Oci/ml, t 24 h) was under 100 CFU/ml. For the same compound, the “Number of CFUs” value (0.25 Oci/ml, t 48 h) was under 100 CFU/ml, the “Number of CFUs” value (0.25 Oci/ml, t 72 h) was under 100 CFU/ml and the “antimicrobial effect, summary in words” value was “immediate effect at the concentrations tested”.
